Values of other authors, collected in patent US20090029952A1, “UNIQUE COMBINATION OF […] ACID, ETHYLENEDIAMINE DIHYDROIODIDE (EDDI), AND BUFFER FOR USE IN ANIMAL DRINKING WATER” (priority 2007, published 2009).

Q: Which “maximum solubility of aspirin alone in water” value (alone in water, or in the presence of sodium acetate or sodium diacetate) does the source give for `CC(=O)Oc1ccccc1C(=O)O` [aspirin, acetylsalicylic acid] here?
A: 0.1 % by weight

Q: What about the solubility in water (water, from chemical handbooks) of the same compound?
A: 0.1%
